Data: patent US20190071416A1, “COMPOUNDS FOR TREATMENT OF CANCER AND EPIGENETICS” (Agency For Science, Technology and Research, priority 2015, published 2019)
Where two headings read alike, the source gives them in different places.

What was measured:
CFPAC-1 = assay: Cell proliferation assay (CellTiter-Glo), CFPAC-1; type: cell-based; conditions: Homo sapiens, CFPAC-1, 72 h; 3 days
Procedure: (§1) The cell proliferation assays were tested in several cell lines, including HepG2,HCT116, A549, HPAF-II, CFPAC-1,HuH7, SNU398,Hep3B, and HEK293. All cell lines are from ATCC. HepG2, HPAF-II and HEK293 are cultured in Eagle's MEM media supplemented with fetal bovine serum. HCT116 is cultured in McCoy media supplemented with fetal bovine serum. Huh-7 is cultured in DMEM low glucose (1000 mg/L glucose) with 10% FBS, 1% L-Glutamate and 1% Penicillin/Streptomycin. SNU398 is cultured in RPMI with 10% FBS with 1% L-Glutamate and 1% Penicillin/Streptomycin. Hep3B is cultured in Eagle's MEM with 10% FBS, 1% L-Glutamate and 1% Penicillin/Streptomycin. A549 is cultured in RPMI media supplemented with fetal bovine serum while CFPAC-1 is cultured in IMDM media supplemented with fetal bovine serum. All media and serum are purchased from Gibco (Lifetech). All cells were grown in a temperature controlled incubator at 37° C. and 5% CO2.
(§2) Cell proliferation assay was performed using CellTiter-Glo Luminescent Cell Viability Assay (Promega) following manufacturer's instructions. The cell-line of interest was treated with compounds that were serial diluted in its respective media. Plates were incubated for 3 days at 37° C. in 5% CO2. After 3 days, an equal volume of Cell Titer Glo reagent was added. Plates were rocked on a rotator for 2 h. 100 μL of each well were transferred to a 96-well opaque plate, and luminescence emitted was measured with the Tecan Safire II.

HCT-116 = assay: Cell proliferation assay (CellTiter-Glo), HCT-116; type: cell-based; conditions: Homo sapiens, HCT-116, 72 h; 3 days
Procedure: as §1, §2

HPAF-II = assay: Cell proliferation assay (CellTiter-Glo), HPAF-II; type: cell-based; conditions: Homo sapiens, 72 h, 3 days
Procedure: as §1, §2

A549 = assay: Cell proliferation assay (CellTiter-Glo), A549; type: cell-based; conditions: Homo sapiens, A549, 72 h; 3 days
Procedure: as §1, §2

HepG2 = assay: Cell proliferation assay (CellTiter-Glo), HepG2; type: cell-based; conditions: Homo sapiens, HepG2, 72 h; 3 days
Procedure: as §1, §2

SMYD3 [1] = target: T1, SMYD3 (Homo sapiens, UniProt Q9H7B4); assay: SMYD3 biochemical assay (MTase-Glo, MAP3K2 peptide substrate)
T1 sequence (Q9H7B4 1-428): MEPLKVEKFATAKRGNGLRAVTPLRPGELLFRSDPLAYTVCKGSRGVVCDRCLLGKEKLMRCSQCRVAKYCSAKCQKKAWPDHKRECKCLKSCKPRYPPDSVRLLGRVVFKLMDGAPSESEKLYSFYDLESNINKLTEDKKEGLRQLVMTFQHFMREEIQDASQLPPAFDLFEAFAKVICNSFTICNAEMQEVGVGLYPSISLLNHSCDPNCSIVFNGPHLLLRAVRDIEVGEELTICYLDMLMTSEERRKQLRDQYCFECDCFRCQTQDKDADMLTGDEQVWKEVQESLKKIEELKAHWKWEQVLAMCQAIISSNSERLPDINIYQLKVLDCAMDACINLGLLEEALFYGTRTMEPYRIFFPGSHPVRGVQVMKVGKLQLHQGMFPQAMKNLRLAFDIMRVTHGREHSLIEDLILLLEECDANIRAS
Procedure, shortened: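 Methylation of MAP3K2 peptide (10 µM final) with SAM (1.0 µM final) by SMYD3, 30 min at room temperature. SAH formed was enzymatically converted to ATP and detected as luminescence with MTase-Glo reagents; IC50 by non-linear regression.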

Hep G2 cells = assay: Soft agar colony formation assay; type: cell-based, human; conditions: Homo sapiens, HepG2
Procedure: Hep G2 cells were purchased from ATCC. Hep G2 cells were maintained in Eagle's Minimum Essential Medium (Sigma, Cat No: #M0643) supplemented with 10% Fetal Bovine Serum (Hyclone, Cat No: SV30087.03), 2 mM L-glutamine, 100 units/mL penicillin and 100 μg/mL streptomycin (Life Technologies, Cat No: 10378-016). The soft agar assays were performed in concordance to the ETC approved method report for soft agar assay (ETC document number: RD0019). Briefly, 600 μL of 0.6% agar was added to 24-well plate (Corning, Cat No: 3738) to form the base layer. This is followed by the addition of 500 μL of 0.36% agar middle layer (containing 10′000Hep G2 cells). Lastly, 500 μL of fresh growth medium (containing the corresponding serially diluted compound) was added above the middle layer. The plates were incubated at 37° C. with 5% carbon dioxide in a humidified incubator for 1 to 2 weeks. 70 μL of thiazolyl blue tetrazolium bromide (5 mg/mL, Sigma Cat No: M5655) was added to each well and the plates were incubated at 37° C. for 2 h. Colonies were counted with GelCount® instrument (Oxford Optronix). The colony counts were plotted against compound concentrations using the Graphpad Prism software. In addition, the software was used to perform non-linear curve fitting and the calculation of IC50.

[2] = target: ubiquitin specific protease 7 (Homo sapiens, UniProt Q93009); conditions: cited from earlier work
ubiquitin specific protease 7, sequence (Q93009 whole entry): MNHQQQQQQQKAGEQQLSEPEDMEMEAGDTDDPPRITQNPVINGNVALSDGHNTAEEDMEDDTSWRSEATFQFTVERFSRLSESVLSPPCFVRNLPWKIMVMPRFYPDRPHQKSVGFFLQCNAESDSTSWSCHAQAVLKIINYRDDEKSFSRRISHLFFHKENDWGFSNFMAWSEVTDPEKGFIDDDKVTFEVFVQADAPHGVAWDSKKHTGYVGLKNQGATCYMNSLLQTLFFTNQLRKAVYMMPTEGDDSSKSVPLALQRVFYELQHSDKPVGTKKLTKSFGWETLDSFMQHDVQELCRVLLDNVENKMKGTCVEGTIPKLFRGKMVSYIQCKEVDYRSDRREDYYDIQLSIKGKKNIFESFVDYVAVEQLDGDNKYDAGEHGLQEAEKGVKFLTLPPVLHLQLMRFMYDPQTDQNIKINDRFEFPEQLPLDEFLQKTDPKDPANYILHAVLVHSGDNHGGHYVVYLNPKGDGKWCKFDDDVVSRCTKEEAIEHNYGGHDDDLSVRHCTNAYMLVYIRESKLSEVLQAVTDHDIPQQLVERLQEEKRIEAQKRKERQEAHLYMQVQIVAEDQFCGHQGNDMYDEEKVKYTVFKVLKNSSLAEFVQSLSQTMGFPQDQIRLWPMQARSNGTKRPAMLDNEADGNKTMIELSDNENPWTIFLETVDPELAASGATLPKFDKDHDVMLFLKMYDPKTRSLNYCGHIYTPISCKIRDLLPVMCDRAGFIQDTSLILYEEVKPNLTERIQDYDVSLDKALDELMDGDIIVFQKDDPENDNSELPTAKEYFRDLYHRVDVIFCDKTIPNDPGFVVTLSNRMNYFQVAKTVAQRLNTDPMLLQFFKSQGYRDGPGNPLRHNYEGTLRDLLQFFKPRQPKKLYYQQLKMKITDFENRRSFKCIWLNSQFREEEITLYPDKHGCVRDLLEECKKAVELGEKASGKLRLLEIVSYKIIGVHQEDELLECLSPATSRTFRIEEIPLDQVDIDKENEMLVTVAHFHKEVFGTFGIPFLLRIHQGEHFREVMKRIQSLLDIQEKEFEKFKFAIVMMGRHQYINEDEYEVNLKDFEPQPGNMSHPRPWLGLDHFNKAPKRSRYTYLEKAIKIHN

[3] = Human liver microsomes stability test; type: in vitro ADME
[4] = Mouse liver microsomes stability test; type: in vitro ADME
[5] = test system: MAP3K2 methylation (me2/me3-Lys 260); assay: SMYD3 mediated methylation of MAP3K2 in HEK293 cells (Western blot); type: cell-based, Human; conditions: 25 μM
Procedure: (§3) The cells were seeded in 6 well plates. After seeding for 24 h, the cells were treated with either DMSO or 25 μM compound and incubated for 24 hr. The cells were trypsinized and the lysate was extracted with RIPA buffer (Santa Cruz). The total protein concentration of lysate is quantified using the standard Bradford assay (Biorad protein assay, microplate standard assay).
Western blot analysis for detecting methylated MAP3K2 was carried out using a customized Anti-me2/me3-Lys 260 MAP3K2 at 1:500 and the total MAP3K2 was detected using Anti-MEKK2 (AB33918) using a 1:10,000 dilution.
B019 was further tested for its ability to inhibit SMYD3 in cells through its effects on cellular MAP3K2 methylation. This was performed using an antibody against the MAP3K2 (me2/me3), Anti-ME2/ME3-K260-MAP3K2 (1:500) and total MAP3K2, Anti-MEKK2 #ab33918 (1:10,000).

SMYD3 [6] = target: T1, SMYD3; conditions: assay reported in the publication; cited from earlier work
SMYD3 [7] = target: T1, SMYD3; assay: Target engagement assay, SMYD3 levels by Western blot in HEK293 cells transfected with Myc-SMYD3; type: cell-based; parameters: host or cells: HEK293 (ATCC); conditions: compared to B019
Procedure: The target engagement assay was performed with HEK293 that is engineered to overexpress SMYD3 (HEK293-SMYD3). The plasmid SMYD3 (Myc-DDK-tagged-Human SET and MYND domain containing 3) was purchased from Origene (RC230064) and transfected with lipofectamine 2000 (Invitrogen) into HEK293 (ATCC). The cell line is cultured in Eagle's MEM media supplemented with fetal bovine serum and geneticin (Invitrogen). Presence of over-expressed SMYD3 is confirmed with western blot with antibody against SMYD3 and the MYC tag as well as with RT-PCR with SMYD3 primers.
as §3
Western blot analysis was performed using antibody against SMYD3 in HEK293 cells over-expressing SMYD3 (HEK293-SMYD3) treated with compound at different time points. 15.0 μg of cell lysate was diluted in 2× Laemmli sample buffer (Bio-Rad) and boiled at 100° C. on heat block for 5 min. Lysates were separated using NuPAGE® 4-12% Bis-Tris precast polyacrylamide gels (Lifetech) at 200 V, […] for 40 min. […]

[8] = Table 1, MAP3K2 peptide as substrate, read-out: IC50
[9] = Table 2, read-out: Biochemical assay IC50
[10] = Table 3, MTase assay, MAP3K2 peptide substrate, read-out: IC50
[11] = Table 4, prior art compounds, read-out: IC50

| Structure (SMILES) | GI50 (CFPAC-1) [µM] | GI50 (HCT-116) [µM] | GI50 (HPAF-II) [µM] | GI50 (A549) [µM] | GI50 (HepG2) [µM] | IC50 (SMYD3 [1]; [8]) [µM] | IC50 (SMYD3 [1]; [9]) [µM] | IC50 (SMYD3 [1]; [10]) [µM] | activity against SMYD3 (SMYD3 [1]) | further results |
| --- | --- | --- | --- | --- | --- | --- | --- | --- | --- | --- |
| CCCOC(=O)N1CCN(C(=O)c2ccc3c(Cl)c4c(nc3c2)CCC(CCN)C4)CC1 (centres unmarked) [A066, Propyl 4-(7-(2-aminoethyl)-9-chloro-5,6,7,8-tetrahydroacridine-3-carbonyl)piperazine-1-carboxylate] | 15.3 | 24.9 | 11.1 | 18.4 | 33.1 | 0.0461 | 0.0461 | 0.3 |  |  |
| CCCOC(=O)N1CCN(C(=O)c2ccc3c(Cl)c4c(nc3c2)CC(c2ccccn2)CC4)C[C@H]1C (stereo partly drawn) [A074, Propyl (2R)-4-(9-chloro-6-(pyridin-2-yl)-5,6,7,8-tetrahydroacridine-3-carbonyl)-2-methylpiperazine-1-carboxylate] | 36.9 | 11.4 | 50.4 | 15.8 | 10.7 | 0.152 | 0.152 | 0.15 |  | IC50 (Hep G2 cells; Hep G2, soft agar): 0.71 µM; inhibition at 10 µM (Hep G2 cells; highest concentration tested (10 μM)): ~100% |
| CCCOC(=O)N1CCN(C(=O)c2ccc3c(Cl)c4c(nc3c2)CC(CCN)CC4)[C@@H](C)C1 (stereo partly drawn) [A088, Propyl (3S)-4-(6-(2-aminoethyl)-9-chloro-5,6,7,8-tetrahydroacridine-3-carbonyl)-3-methylpiperazine-1-carboxylate] | 21.9 | 16.1 | 33.7 | 28.4 | 17.1 | 0.092 | 0.092 | 0.09 |  |  |
| Cc1cccc(CN2CCC(CNC(=O)c3ccc4c(Cl)c5c(nc4c3)CCCC5)CC2)c1 [X2, reference compound] |  |  |  |  |  |  |  |  | not active | activity against ubiquitin specific protease 7 [2]: act against; IC50 (SMYD3 [1]; [11]): 750 µM |
| CN1CCC(N2CCN(C(=O)c3ccc4c(Cl)c5c(nc4c3)CCCC5)CC2)CC1 [X3, reference compound] |  |  |  |  |  |  |  |  | not active | activity against ubiquitin specific protease 7 [2]: act against; IC50 (SMYD3 [1]; [11]): 750 µM |
| CCOC(=O)N1CCN(C(=O)c2ccc3c(Cl)c4c(nc3c2)CCCC4)CC1 [X4, ethyl 4-(9-chloro-5,6,7,8-tetrahydroacridine-3-carbonyl)piperazine-1-carboxylate, reference compound] |  |  |  |  |  |  |  |  |  | half-life ([3]; read-out: half-life, t1/2): 9 min; half-life ([4]; read-out: half-life, t1/2): 4 min; IC50 (SMYD3 [1]; read-out: active against SMYD3): 6.2 µM; inhibition of methylation of MAP3K2 in cells [5]: unable to inhibit |
| O=C1Cc2cc(C(=O)N[C@H]3C[C@H]4CC[C@@H](C3)N4S(=O)(=O)CC3CCN(CCCC(F)(F)F)CC3)c(Cl)cc2N1 [X5] |  |  |  |  |  |  |  |  |  | active against SMYD3 (SMYD3 [6]): 3 nM |
| CCOC(=O)N1CCN(C(=O)c2ccc3c(Cl)c4c(nc3c2)CCCC4)CC1 [ethyl 4-(9-chloro-5,6,7,8-tetrahydroacridine-3-carbonyl)piperazine-1-carboxylate] |  |  |  |  |  |  |  |  | moderately active | metabolic stability ([3]; high metabolic clearance): poor; metabolic stability ([4]; high metabolic clearance): poor; target engagement (SMYD3 [7]): poor |
